Assays:
Tankyrase 2 (TNKS2) = target: T1, Tankyrase 2 (TNKS2) (Homo sapiens, UniProt Q9H2K2); experiment: TNK2 Binding Assay (Tankyrase 2 ribosylation, chemiluminescence); type: biochemical
T1 sequence (Q9H2K2 1-1166): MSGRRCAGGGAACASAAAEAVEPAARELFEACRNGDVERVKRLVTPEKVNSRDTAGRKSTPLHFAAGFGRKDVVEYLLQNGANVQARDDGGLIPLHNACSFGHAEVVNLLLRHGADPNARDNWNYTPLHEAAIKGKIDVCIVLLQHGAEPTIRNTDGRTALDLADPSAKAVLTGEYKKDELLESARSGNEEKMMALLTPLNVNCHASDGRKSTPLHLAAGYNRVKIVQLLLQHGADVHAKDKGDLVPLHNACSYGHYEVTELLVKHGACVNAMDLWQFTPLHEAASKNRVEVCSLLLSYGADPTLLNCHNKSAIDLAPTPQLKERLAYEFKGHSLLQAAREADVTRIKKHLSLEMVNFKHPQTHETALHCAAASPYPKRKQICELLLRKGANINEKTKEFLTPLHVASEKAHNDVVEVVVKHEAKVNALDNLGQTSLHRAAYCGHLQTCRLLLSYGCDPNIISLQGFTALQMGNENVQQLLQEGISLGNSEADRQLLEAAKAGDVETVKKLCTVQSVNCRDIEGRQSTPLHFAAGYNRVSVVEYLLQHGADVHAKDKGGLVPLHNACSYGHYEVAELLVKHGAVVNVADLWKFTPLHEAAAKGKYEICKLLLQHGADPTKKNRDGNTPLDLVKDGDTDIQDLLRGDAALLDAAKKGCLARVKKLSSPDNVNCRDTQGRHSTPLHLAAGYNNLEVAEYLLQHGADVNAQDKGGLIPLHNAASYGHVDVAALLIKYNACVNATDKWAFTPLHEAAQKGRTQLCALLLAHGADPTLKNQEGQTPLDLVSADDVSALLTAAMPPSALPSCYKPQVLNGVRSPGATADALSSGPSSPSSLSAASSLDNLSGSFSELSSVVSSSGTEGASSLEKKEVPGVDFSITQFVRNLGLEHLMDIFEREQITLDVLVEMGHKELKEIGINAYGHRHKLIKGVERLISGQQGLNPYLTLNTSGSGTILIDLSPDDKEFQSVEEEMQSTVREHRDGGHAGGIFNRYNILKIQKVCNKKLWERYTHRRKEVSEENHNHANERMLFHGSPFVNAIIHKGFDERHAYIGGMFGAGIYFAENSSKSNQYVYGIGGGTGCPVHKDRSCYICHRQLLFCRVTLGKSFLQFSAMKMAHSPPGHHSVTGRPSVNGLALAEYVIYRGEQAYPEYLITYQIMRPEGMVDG
Description: Tankyrase 2 assay (n=3) was performed with the following steps: step 1, coating a 96-well plate with 50 μL/well of histone solution; step 2, conducting ribosylation reaction; and step 3, detection.
Step 1: Coating a 96-Well Plate with 50 μL/Well of Histone Solution.
A 5× histone mixture was diluted 1:5 with PBS to make a 1× histone in PBS mixture. 50 μL of the histone mixture was added to each well and incubated at 4° C. overnight. The plate was washed three times using 200 μL PBST buffer (1×PBS containing 0.05% Tween*20 (polysorbate 20) per well. The plate was tapped onto a clean paper towel to remove the liquid. The wells were blocked by adding 200 μL of blocking buffer 3 to each well. The plate was incubated at room temperature for at least 90 minutes. The plate was washed three times with 200 μL PBST buffer. The plate was tapped onto a clean paper towel to remove the liquid.
A fresh solution of 10 mM DTT in water was prepared.
A master mix was prepared and delivered to each well (25 μL/well). Master mix delivered to each well: (2.5 μL of 10×PARP assay buffer (purchased from BPS Bioscience)+2.5 μL of PARP substrate mixture 2+17.5 μL of water+2.5 μL of 10 mM fresh DTT). The concentration of DTT in the master mix was 1 mM. 25 μL of master mix was added to each well.
1×PARP buffer with DTT was prepared. 10×PARP assay buffer was diluted to 1×PARP assay buffer containing DTT by adding 1 volume of 10×PARP assay buffer+1 volume of 10 mM DTT+8 volumes of water. The concentration of DTT in the 1×PARP assay buffer was 1 mM.
5 μL of a test inhibitor was added to each well labeled as “Test Inhibitor.” For the “Positive Control,” the PARP inhibitor, XAV939, was used. For the negative control, no inhibitor is added to the assay mix.
The Tankyrase 2 (TNKS2) enzyme on ice was thawed. The tube containing the enzyme was spun briefly to recover the full content of the tube. The amount of TNKS2 enzyme required for the assay was calculated and the enzyme was diluted to 0.5 ng/μL with 1×PARP assay buffer with DTT. 16) The final concentration of TNKS2 enzyme in the assay was 2 nM. The reaction was initiated by adding 10 μL of diluted TNKS2 enzyme to each well designated “Positive Control” and “Test Inhibitor.” To each well designated as “Blank,” 10 μL of 1×PARP assay buffer with DTT was added. The plate was incubated at room temperature for 1 hour. The plate was washed three times with 100 μL of PBST buffer and the plate was tapped onto a clean paper towel.
1) Streptavidin-HRP was diluted 1:50 in Blocking buffer (purchased from BPS Bioscience) 3.50 μL of diluted Streptavidin-RP was added to each well and incubated for 30 minutes at room temperature. The plate was washed three times with 100 μL of PBST buffer and tapped onto a clean paper towel. Just before use, 1 volume of ELISA ECL Substrate A and 1 volume of ELISA ECL Substrate B were mixed on ice; and 100 μL was added to each well. Immediately, the plate was read in a luminometer or microtiter-plate reader capable of reading chemiluminescence. The “Blank” value was subtracted from all other values.

new porcine skin = experiment: Max force of healed wound; type: in vivo; conditions: day 21; for Max Force / Max Force, Mean: topical
Description: Additional tests were performed including elasticity (Table 12); max force (Table 13); tensile strength (strain) (Table 14); energy peak (Table 15); rete-ridge formation; and collagen organization (plane polarized light) (FIG. 24) of the healed wound sites, described as follows.
A is saline (control), B is serum formulation control (vehicle), C is GO-HA (vehicle), D is Compound 1; E is Compound 1+GO-HA; F is Compound 8; G is Compound 8+GO-HA; H is Compound 10; and J is Compound 10+GO-HA. Descriptions for saline control, serum formulation control, and GO-HA are as provided above for FIG. 19.
Max Force (N) is the average force required to break/rupture a material. All compounds of Formula (I) tested with or without GO-HA ranged from 18% to 68% improvement in max force compared to the saline control.

| SMILES | IC50 (Tankyrase 2 (TNKS2)) [nM] | Max Force (new porcine skin; individual value 1) [N] | Max Force (new porcine skin; individual value 2) [N] | Max Force (new porcine skin; individual value 3) [N] | Max Force (new porcine skin; individual value 4) [N] | Max Force, Mean (new porcine skin) [N] | Max Force (new porcine skin; individual value 5) [N] | improvement in max force compared to the saline control (new porcine skin) [%] |
| --- | --- | --- | --- | --- | --- | --- | --- | --- |
| O=c1[nH]c(-c2ccc(B(O)O)cc2)nc2c1CSCC2 [Compound 1, (4-(4-oxo-3,5,7,8-tetrahydro-4H-thiopyrano[4,3-d]pyrimidin-2-yl)phenyl)boronic acid] | 26 | 290.184 | 278.868 | 250.554 | 273.195 | 273.200 | – | – |
| O=c1[nH]c(-c2ccc(-c3ccc(Br)nc3)cc2)nc2c1CSCC2 [Compound 7, 2-(4-(6-bromopyridin-3-yl)phenyl)-3,5,7,8-tetrahydro-4H-thiopyrano [4,3-d]pyrimidin-4-one] | 5 | – | – | – | – | – | – | – |
| CC(C)(OCCO)c1ccc(-c2nc3c(c(=O)[nH]2)CSCC3)cc1 [Compound 8, 2-(4-(2-(2-hydroxyethoxy)propan-2-yl)phenyl)-3,5,7,8-tetrahydro-4H-thiopyrano[4,3-d]pyrimidin-4-one] | 3.16 | 404.094 | 488.094 | 273.110 | 330.413 | 333.196 | 169.61 | – |
| O=c1[nH]c(-c2ccc(-c3ccc(B(O)O)cc3)cc2)nc2c1CSCC2 [Compound 10, (4′-(4-oxo-3,5,7,8-tetrahydro-4H-thiopyrano[4,3-d]pyrimidin-2-yl)-[1,1′-biphenyl]-4-yl)boronic acid] | 3.29 | 406.879 | 474.825 | 344.860 | 335.864 | 390.607 | – | 68 |
| COC(=O)NCCOC(C)(C)c1ccc(-c2nc3c(c(=O)[nH]2)CSCC3)cc1 [Compound 18, methyl (2-((2-(4-(4-oxo-3,5,7,8-tetrahydro-4H-thiopyrano[4,3-d]pyrimidin-2-yl)phenyl)propan-2-yl)oxy)ethyl)carbamate] | 4 | – | – | – | – | – | – | – |

Reference: US20260356860A1, “2-SUBSTITUTED 3,4A,5,7,8,8A-HEXAHYDRO-4H-THIOPYRANO[4,3-DJPYRIMIDIN-4-ONES FOR WOUND TREATMENT” (priority 2022, published 2026)
